3 compounds from PMC10850208, “Engineering amino acid residues of pentacyclic triterpene synthases for improving the activity” (Applied Microbiology and Biotechnology, 2024) can be followed below.

Assay in all cases: product titer in engineered yeast by UHPLC
Common to all, as to assay type: cell-based

For assay [1], the target named is T1, OEW (lupeol synthase from Olea europaea) (Olea europaea, UniProt Q9SLW3).
T1 construct: synthesized gene, one copy integrated in the genome of S. cerevisiae SP1, PGK1 promoter; whole-cell production
T1 sequence (Q9SLW3 1-758): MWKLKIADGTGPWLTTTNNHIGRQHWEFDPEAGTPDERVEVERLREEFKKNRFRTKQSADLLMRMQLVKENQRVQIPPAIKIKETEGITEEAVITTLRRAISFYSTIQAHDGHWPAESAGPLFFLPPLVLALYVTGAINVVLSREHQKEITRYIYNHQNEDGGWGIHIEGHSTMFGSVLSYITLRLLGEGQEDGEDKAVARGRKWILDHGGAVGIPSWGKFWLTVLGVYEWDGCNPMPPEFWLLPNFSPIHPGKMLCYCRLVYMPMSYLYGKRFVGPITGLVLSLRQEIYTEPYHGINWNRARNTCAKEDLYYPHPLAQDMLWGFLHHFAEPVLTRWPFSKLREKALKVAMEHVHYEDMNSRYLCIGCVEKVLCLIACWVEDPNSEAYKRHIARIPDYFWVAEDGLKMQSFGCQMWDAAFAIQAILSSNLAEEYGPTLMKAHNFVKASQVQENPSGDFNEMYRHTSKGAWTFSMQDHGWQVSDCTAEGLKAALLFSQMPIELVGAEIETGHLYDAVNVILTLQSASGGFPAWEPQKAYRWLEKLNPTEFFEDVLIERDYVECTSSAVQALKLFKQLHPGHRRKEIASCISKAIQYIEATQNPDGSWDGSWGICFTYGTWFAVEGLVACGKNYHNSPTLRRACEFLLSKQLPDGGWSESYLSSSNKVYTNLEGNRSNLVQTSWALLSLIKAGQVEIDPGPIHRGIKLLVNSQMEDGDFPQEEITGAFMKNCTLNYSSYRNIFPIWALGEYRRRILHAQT
The conditions noted are these: endogenous substrate of S. cerevisiae, not added; 30 °C, 72 h shake flask.

The target of assay [2] is T2, MdOSC1 (α-amyrin synthase from Malus × domestica) (Malus domestica, UniProt C7SCX0).
T2 construct: gene OSC1; synthesized gene, one copy integrated in the genome of S. cerevisiae SP1, PGK1 promoter; whole-cell production
T2 sequence (C7SCX0 entry or part of it): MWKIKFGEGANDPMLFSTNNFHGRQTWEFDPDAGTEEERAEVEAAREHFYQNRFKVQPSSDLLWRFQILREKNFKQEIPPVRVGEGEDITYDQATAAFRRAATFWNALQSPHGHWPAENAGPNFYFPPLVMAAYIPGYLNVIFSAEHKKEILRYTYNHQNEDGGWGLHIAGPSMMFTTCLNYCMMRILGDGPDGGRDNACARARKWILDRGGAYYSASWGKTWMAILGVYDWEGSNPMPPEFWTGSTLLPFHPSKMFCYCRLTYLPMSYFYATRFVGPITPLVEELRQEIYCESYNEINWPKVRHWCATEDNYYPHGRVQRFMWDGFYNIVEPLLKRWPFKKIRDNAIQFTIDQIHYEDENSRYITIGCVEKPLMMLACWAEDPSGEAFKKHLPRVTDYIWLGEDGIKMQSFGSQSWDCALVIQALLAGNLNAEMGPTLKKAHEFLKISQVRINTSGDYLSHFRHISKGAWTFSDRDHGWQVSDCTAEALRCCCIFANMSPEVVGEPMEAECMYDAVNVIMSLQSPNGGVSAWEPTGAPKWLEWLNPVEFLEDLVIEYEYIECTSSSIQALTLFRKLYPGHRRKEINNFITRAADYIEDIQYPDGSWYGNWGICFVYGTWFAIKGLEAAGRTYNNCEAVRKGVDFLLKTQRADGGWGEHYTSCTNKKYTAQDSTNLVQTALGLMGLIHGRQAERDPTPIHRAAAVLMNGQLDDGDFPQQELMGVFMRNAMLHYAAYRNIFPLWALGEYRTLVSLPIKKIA
The conditions noted are these: endogenous substrate of S. cerevisiae, not added; 30 °C, 72 h shake flask; mixed product with β-amyrin.

The target in assay [3] is T3, GgbAS (β-amyrin synthase from Glycyrrhiza glabra) (Glycyrrhiza glabra, UniProt Q9MB42).
T3 construct: gene bAS1; synthesized gene, one copy integrated in the genome of S. cerevisiae SP1, PGK1 promoter; whole-cell production
T3 sequence (Q9MB42 whole entry): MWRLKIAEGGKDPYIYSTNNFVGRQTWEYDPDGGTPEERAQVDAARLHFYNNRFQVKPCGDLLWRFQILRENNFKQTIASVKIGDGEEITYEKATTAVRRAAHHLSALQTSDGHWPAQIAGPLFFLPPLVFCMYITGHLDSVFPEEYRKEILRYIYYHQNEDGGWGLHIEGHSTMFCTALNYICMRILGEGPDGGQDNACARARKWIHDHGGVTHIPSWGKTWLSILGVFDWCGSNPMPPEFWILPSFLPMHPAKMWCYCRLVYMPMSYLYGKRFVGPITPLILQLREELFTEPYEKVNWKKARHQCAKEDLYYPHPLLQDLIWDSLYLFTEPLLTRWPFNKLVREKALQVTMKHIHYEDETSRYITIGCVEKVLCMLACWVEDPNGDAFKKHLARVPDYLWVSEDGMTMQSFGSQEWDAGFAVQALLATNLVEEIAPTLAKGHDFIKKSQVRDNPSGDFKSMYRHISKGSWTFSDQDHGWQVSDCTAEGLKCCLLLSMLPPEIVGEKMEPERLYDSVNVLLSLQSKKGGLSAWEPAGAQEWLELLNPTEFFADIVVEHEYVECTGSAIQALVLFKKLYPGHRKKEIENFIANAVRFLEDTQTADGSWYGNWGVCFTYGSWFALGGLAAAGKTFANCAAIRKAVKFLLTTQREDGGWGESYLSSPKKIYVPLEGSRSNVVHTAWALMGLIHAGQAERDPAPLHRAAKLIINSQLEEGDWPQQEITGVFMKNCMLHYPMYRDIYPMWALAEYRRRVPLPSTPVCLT
The conditions noted are these: endogenous substrate of S. cerevisiae, not added; 30 °C, 72 h shake flask.

`C=C(C)[C@@H]1CC[C@]2(C)CC[C@]3(C)[C@H](CC[C@@H]4[C@@]5(C)CC[C@H](O)C(C)(C)[C@@H]5CC[C@]43C)[C@@H]12` [lupeol]: the “product titer in engineered yeast by UHPLC” value (from here on “product titer”) in assay [1] is given as “increase in the production of lupeol compared with that of the strain SP1 harboring”.
In the case of `C[C@H]1[C@H](C)CC[C@]2(C)CC[C@]3(C)C(=CC[C@@H]4[C@@]5(C)CC[C@H](O)C(C)(C)[C@@H]5CC[C@]43C)[C@H]12` [α-amyrin], the “product titer” value in assay [2] is “increase in the titer of α-amyrin and β-amyrin, compared with these of the strain SP1”.
Regarding `CC1(C)CC[C@]2(C)CC[C@]3(C)C(=CC[C@@H]4[C@@]5(C)CC[C@H](O)C(C)(C)[C@@H]5CC[C@]43C)[C@@H]2C1` [β-amyrin], in assay [3], the “product titer” value was “higher titer and specific titer of β-amyrin than these of strain SP1 harboring the wild-type GgbAS”.
